What is called EC50 is the concentration giving half of the maximal effect. One may read the inhibition as the share of the control response that was lost under treatment.

From US12655090B2, “Cyclopropylamide compounds against parasites in fish” (Intervet Inc., priority 2021, dated 2026) come the findings set out here.

Each structure is given as a SMILES string. Where two headings read alike, the source gives them in different places.

In assay [1] the test system is Mobile stages of sea lice (pre-adults, adults of Lepeophtheirus salmonis). Description: Adult sea lice contact assay. The settings on record: assessed after approximately 1 and 24 hours of continuous exposure, read-out: EC50 (sea lice inhibition, dead+damaged sea lice). The protocol: Mobile stages of sea lice (i.e., pre-adults, adults of Lepeophtheirus salmonis) were exposed to seawater spiked with declining concentrations of a test compound (dissolved in a PEG sea-water mixture). Sea lice inhibition (% of dead+damaged sea lice) was assessed after approximately 1 and 24 hours of continuous exposure in comparison to a negative (solvent) control group.

Assay [2] deals with Lepeophtheirus salmonis sea lice on salmon (Salmo salar). Description: Salmon in vivo efficacy trial using gavage administration. The settings on record: po. The protocol:
Salmon (Salmo salar) were treated once orally by gavage at a dose of 5 mg/kg bodyweight per fish (Day 0). As formulation DMSO 5%/fish oil 95% was used. Salmon of the negative control group received only the excipients of the formulation. The fish were infested with Lepeophtheirus salmonis copepodids twice before treatment (i.e., around day −28 and day −3) and once after treatment (i.e., day 17). […] Around day 28 (end of animal phase), fish were euthanized, and lice on each fish were classified ((pre-)adult or juvenile stage) and counted. […] Efficacy is expressed as a % reduction of sea lice in treated groups versus a control group, using the Abbott's formula.

Assay [3] deals with Copepodids (juvenile sea lice stage of Lepeophtheirus salmonis). Description: Juvenile sea lice contact assay. The settings on record: approximately 24 hours continuous exposure in seawater, read-out: Sea lice inhibition (% of dead+damaged copepodids); for inhibition at 0.01 µM: test concentration 10 nM; for inhibition at 0.0001 µM: test concentration 0.1 nM; for inhibition at 0.1 µM: test concentration 100 nM. The protocol:
Copepodids (juvenile sea lice stage of Lepeophtheirus salmonis) were exposed to seawater spiked with declining concentrations of a test compound (dissolved in a DMSO sea-water mixture). Sea lice inhibition (% of dead+damaged copepodids) was assessed after approximately 24 hours of continuous exposure. The vitality of used parasites was confirmed in a negative (solvent) control group.

Assay [4] relates to Lepeophtheirus salmonis sea lice on salmon (Salmo salar). Description: Salmon in vivo efficacy trial using in-feed administration. The settings on record: 1 mg/kg fish biomass via coated feed for 7 consecutive days; for therapeutic efficacy against juvenile sea lice: day -3 infestation, counted around day 25; for therapeutic efficacy against (pre-)adult sea lice: day -28 infestation, counted around day 8. The protocol: Commercial fish feed pellets were coated with formulated test compound. As formulation DMSO 5%/fish oil 95% was used. Salmon (Salmo salar) were treated orally with 1 mg/kg fish biomass via coated feed for 7 consecutive days. Salmon of the negative control groups received only feed coated with the excipients of the formulation. Fish of the therapeutic groups were infested with Lepeophtheirus salmonis copepodids twice before treatment (around day −28 and day −3).

The mark [5] stands for this setting: 168 h, read-out: therapeutic efficacy against (pre-)adult sea lice (% reduction vs control, Abbott's formula), once orally by gavage 5 mg/kg bodyweight, day -28 infestation, counted at day 7.
[6] abbreviates: 672 h, read-out: prophylactic efficacy at re-infestation on Day 17 (% reduction vs control, Abbott's formula), once orally by gavage 5 mg/kg bodyweight, re-infestation day 17, counted around day 28.
The mark [7] stands for this setting: 672 h, read-out: therapeutic efficacy against juvenile sea lice (% reduction vs control, Abbott's formula), once orally by gavage 5 mg/kg bodyweight, day -3 infestation, counted around day 28.

Consider `N#CC1(NC(=O)c2cc(NC(=O)[C@H]3[C@H](c4cc(Cl)c(Cl)c(Cl)c4)C3(Cl)Cl)ccc2Cl)CC1` [Compound 1541], for which, in assay [1], the EC50 is 1 to 10 nM. In addition, the inhibition in vivo at 5 mg/kg in assay [2] (setting [5]) was 80%. Further, the inhibition in vivo at 5 mg/kg in assay [2] (setting [6]) was 100%. The inhibition in vivo at 5 mg/kg in assay [2] (setting [7]) is 100%. In addition, the inhibition at 0.01 µM in assay [3] was 100%. Further, in assay [4], the “therapeutic efficacy against juvenile sea lice” value came out at 100%, the “therapeutic efficacy against (pre-)adult sea lice” value is 100%, the “prophylactic efficacy against re-infestation after treatment (D14)” value was 100% and the “prophylactic efficacy against re-infestation after treatment (D28)” value is given as 100%.
As for `N#CC1(NC(=O)c2cc(NC(=O)[C@H]3[C@H](c4cc(Cl)cc(Cl)c4)C3(Cl)Cl)cc(F)c2F)CC1` [Compound 1594], in assay [1], the EC50 is no more than 1 nM. The inhibition in vivo at 5 mg/kg in assay [2] (setting [5]) came out at 100%. Moreover, in assay [2] (setting [6]), the inhibition in vivo at 5 mg/kg was found to be 100%. Moreover, the inhibition in vivo at 5 mg/kg in assay [2] (setting [7]) is 100%. Further, in assay [3], the inhibition at 0.0001 µM worked out at 80%. In assay [4], the “therapeutic efficacy against juvenile sea lice” value is listed as 100%, the “therapeutic efficacy against (pre-)adult sea lice” value worked out at 100%, the “prophylactic efficacy against re-infestation after treatment (D14)” value turned out to be 100% and the “prophylactic efficacy against re-infestation after treatment (D28)” value is 100%.
As to `N#CC1(NC(=O)c2cc(NC(=O)[C@H]3[C@H](c4cc(Cl)c(F)c(Cl)c4)C3(Cl)Cl)ccc2Cl)CC1` [Compound 1609], the EC50 in assay [1] lay in the range of 1 to 10 nM. The inhibition in vivo at 5 mg/kg in assay [2] (setting [5]), in assay [2] (setting [6]) and in assay [2] (setting [7]) was 100% each time. Further, in assay [3], the inhibition at 0.01 µM is 100%.
In the case of `C#CC1(NC(=O)c2cc(NC(=O)[C@H]3[C@H](c4cc(Cl)cc(Cl)c4)C3(Cl)Cl)cc(F)c2F)CC1` [Compound 1617, 5-((1R,3R)-2,2-dichloro-3-(3,5-dichlorophenyl)cyclopropane-1-carboxamido)-N-(1-ethynylcyclopropyl)-2,3-difluorobenzamide], in assay [1], the EC50 was no more than 1 nM. In addition, the inhibition in vivo at 5 mg/kg in assay [2] (setting [5]), in assay [2] (setting [6]) and in assay [2] (setting [7]) was 100% throughout. Moreover, the inhibition at 0.1 µM in assay [3] stood at 100%.
On to `O=C(NC1CC1)c1cc(NC(=O)[C@H]2[C@H](c3cc(Cl)cc(Cl)c3)C2(Cl)Cl)cc(F)c1F` [Compound 1618], for which the EC50 in assay [1] is no more than 1 nM. The inhibition in vivo at 5 mg/kg in assay [2] (setting [5]), in assay [2] (setting [6]) and in assay [2] (setting [7]) was 100% throughout. Besides, in assay [3], the inhibition at 0.01 µM came out at 100%.
With `CC1(NC(=O)c2cc(NC(=O)[C@H]3[C@H](c4cc(Cl)cc(Cl)c4)C3(Cl)Cl)ccc2Cl)CC1` [Compound 1619], the EC50 in assay [1] was no more than 1 nM. Also, the inhibition in vivo at 5 mg/kg is 100% in assay [2] (setting [5]) and 80% in assay [2] (setting [7]). For the same molecule, in assay [3], the inhibition at 0.01 µM was 100%.
Regarding `C#CC1(NC(=O)c2cc(NC(=O)[C@H]3[C@H](c4cc(Cl)cc(Cl)c4)C3(Cl)Cl)ccc2Cl)CC1` [Compound 1620, 2-chloro-5-((1R,3R)-2,2-dichloro-3-(3,5-dichlorophenyl)cyclopropane-1-carboxamido)-N-(1-ethynylcyclopropyl)benzamide], the EC50 in assay [1] was no more than 1 nM. Further, the inhibition in vivo at 5 mg/kg in assay [2] (setting [5]) was determined as 100%; in assay [2] (setting [7]), 80%. Further, the inhibition at 0.01 µM in assay [3] was determined as 100%.
With `O=C(NC1CC1)c1cc(NC(=O)[C@H]2[C@H](c3cc(Cl)cc(Cl)c3)C2(Cl)Cl)ccc1Cl` [Compound 1621], in assay [1], the EC50 was no more than 1 nM. For the same molecule, the inhibition in vivo at 5 mg/kg was found to be 100% in assay [2] (setting [5]) and 80% in assay [2] (setting [7]). Moreover, in assay [3], the inhibition at 0.01 µM turned out to be 100%.
With `C#CCNC(=O)c1cc(NC(=O)[C@H]2[C@H](c3cc(Cl)cc(Cl)c3)C2(Cl)Cl)ccc1Cl` [Compound 1622], the EC50 in assay [1] was no more than 1 nM. For the same molecule, the inhibition in vivo at 5 mg/kg in assay [2] (setting [5]) was 100%. Also, in assay [3], the inhibition at 0.01 µM was no less than 80%.
Regarding `N#CC1(NC(=O)c2cc(NC(=O)[C@H]3[C@H](c4cc(F)c(F)c(F)c4)C3(Cl)Cl)ccc2F)CC1` [Compound 1623], the EC50 in assay [1] was 1 to 10 nM. In addition, the inhibition in vivo at 5 mg/kg in assay [2] (setting [5]) came out at 100%; in assay [2] (setting [7]) it was 80%. The inhibition at 0.0001 µM in assay [3] is 100%.
In the case of `N#CC1(NC(=O)c2cc(NC(=O)[C@H]3[C@H](c4cc(F)c(F)c(F)c4)C3(Cl)Cl)ccc2Cl)CC1` [Compound 1624], the EC50 in assay [1] lay in the range of 1 to 10 nM. The figures for the inhibition in vivo at 5 mg/kg in assay [2] (setting [5]), in assay [2] (setting [6]) and in assay [2] (setting [7]) were 100%, 80% and 80%, respectively. Moreover, the inhibition at 0.0001 µM in assay [3] was 100%.
Consider `O=C(NC1CC(F)(F)C1)c1cc(NC(=O)[C@H]2[C@H](c3cc(Cl)cc(Cl)c3)C2(Cl)Cl)ccc1Cl` [Compound 1625], for which the EC50 in assay [1] is no more than 1 nM. The inhibition in vivo at 5 mg/kg in assay [2] (setting [5]), in assay [2] (setting [6]) and in assay [2] (setting [7]) was 100% each time. The inhibition at 0.1 µM in assay [3] worked out at 100%.
Take `CC1(NC(=O)c2cc(NC(=O)[C@H]3[C@H](c4cc(Cl)cc(Cl)c4)C3(Cl)Cl)ccc2F)CC1` [Compound 1626]: the EC50 in assay [1] was 1 to 10 nM. Further, the inhibition in vivo at 5 mg/kg was 100% in assay [2] (setting [5]) and 80% in assay [2] (setting [7]). The inhibition at 0.01 µM in assay [3] was no less than 80%.
On to `O=C(NC1CC(F)(F)C1)c1cc(NC(=O)[C@H]2[C@H](c3cc(Cl)cc(Cl)c3)C2(Cl)Cl)cc(F)c1F` [Compound 1628], for which the EC50 in assay [1] is 1 to 10 nM. Besides, the inhibition in vivo at 5 mg/kg in assay [2] (setting [5]), in assay [2] (setting [6]) and in assay [2] (setting [7]) was 100% in each case. In addition, in assay [3], the inhibition at 0.01 µM amounted to 100%.
As to `O=C(NC1CC(F)(F)C1)c1cc(NC(=O)[C@H]2[C@H](c3cc(Cl)cc(Cl)c3)C2(Cl)Cl)ccc1F` [Compound 1630], the EC50 in assay [1] is no more than 1 nM. The inhibition in vivo at 5 mg/kg in assay [2] (setting [5]), in assay [2] (setting [6]) and in assay [2] (setting [7]) was 100% in each case. For the same molecule, the inhibition at 0.01 µM in assay [3] turned out to be 100%.
In the case of `O=C(NC1CC1)c1cc(NC(=O)[C@H]2[C@H](c3cc(Cl)cc(Cl)c3)C2(Cl)Cl)ccc1F` [Compound 1632], in assay [1], the EC50 was no more than 1 nM. The inhibition in vivo at 5 mg/kg in assay [2] (setting [5]) was 100%; in assay [2] (setting [7]), 80%. Also, in assay [3] (test concentration 0.01 nM), the inhibition at 10 pM turned out to be 80%.
With `C#CC1(NC(=O)c2cc(NC(=O)[C@H]3[C@H](c4cc(Cl)cc(Cl)c4)C3(Cl)Cl)ccc2F)CC1` [Compound 1633, 5-((1R,3R)-2,2-dichloro-3-(3,5-dichlorophenyl)cyclopropane-1-carboxamido)-N-(1-ethynylcyclopropyl)-2-fluorobenzamide], in assay [1], the EC50 is no more than 1 nM. Besides, the inhibition in vivo at 5 mg/kg worked out at 100% in assay [2] (setting [5]), 80% in assay [2] (setting [6]) and 100% in assay [2] (setting [7]). For the same molecule, the inhibition at 0.001 µM in assay [3] (test concentration 1 nM) was 80%.
